From the NIST ThermoML archive (doi:10.1021/je300819g)
Numbers after ± are expanded uncertainties.

Settings: Liquid, Ebulliometric method (Recirculating still)

CCNCCN [N-ethylethane-1,2-diamine]
Settings	vapor or sublimation pressure [kPa]
358 K	20.8 ± 1.2
366.5 K	29.6 ± 1.2
374.1 K	39.5 ± 1.2
380.3 K	49.7 ± 1.3
390.2 K	69.5 ± 1.3
398.3 K	90.2 ± 1.3
401.9 K	101.2 ± 3.5
402.2 K	101.5 ± 1.3
